Reference: US8088412B2, “Intralymphatic chemotherapy drug carriers” (priority 2008, dated 2012)
Like-named read-outs stand apart in the source and are kept apart here. Marks after values point to notes of the source that are not given here.

Tests used:
[1] = tested on: MCF7; assay: In vitro cell toxicity (DMEM, resazurin blue, 72 hrs); format: cell-based, human
Procedure: (§1) Cell lines were seeded into 96-well plates (5000 cells/well) in DMEM medium supplemented with 5% FBS and 1% penicillin/streptomycin.

[2] = tested on: MDA-MB-231; assay: as above; format: cell-based, human
Procedure: as §1

[3] = tested on: MDA-1986 cells; assay: In vivo efficacy of HA-cisplatin, orthotopic HNSCC model; set-up: species or system Nu/Nu female athymic nude mice; details: intravenous, weekly dose of 3.3 mg/kg for 3 weeks; 3 mice
Text: The in vivo efficacy of HA-cisplatin was studied. All treatment began once animal HNSCC tumors reached 100 mm3 volume. Treatment commenced for 3 weeks. All animals were given 5×10^5 MDA-1986 cells in the buccal mucosa of the left cheek (which is a novel orthotopic HNSCC model I developed this year) and tumors develop in 2-3 weeks.

[4] = Tissue distribution after subcutaneous cisplatin or cisplatin-HA into right mammary fat pad; format: in vivo, Sprague-Dawley rats
Procedure: Animals were allowed to recover with access to food and water. […] Organs and tissues were washed with 0.9% saline and frozen (−80° C.) until analysis. Plasma was separated by centrifugation from whole blood and frozen (−80° C.).
In vitro release samples (n=3) and plasma samples (n=5) were diluted 200-fold and 10-fold, respectively, with 0.1% nitric acid for analysis. […] Lymph nodes were processed similarly using 10 mg of tissue. After digestion, samples were homogenized (Tissue Tearor, BioSpec Products Inc., Bartlesville, Okla.). All samples were centrifuged (17 000×g, 20 min), and the supernate used for analysis.
Analysis was performed on a Varian SpectrAA GTA-110 with graphite furnace and partition tubes. Samples (21 μL) were injected using the autosampler, followed by 19 μL of 0.1% nitric acid. […] The furnace program was as follows: ramp 25 to 80° C., hold 2 s, ramp to 120° C., hold 10 s, ramp to 1000° C., hold 5 s, ramp to 2700° C., hold 2 s, cool to 25° C. over 20 s. The graphite partition tube was cleaned every 40 samples by baking at 2800° C. for 7 s. Argon was used as the injection and carrier gas.

[5] = tested on: MDA-MB-468LN; assay: Cell proliferation over 72 hrs, resazurin blue; format: cell-based, human
Procedure: Preceding proliferation studies, cells were trypsinized and seeded into 96-well plates (5,000 cells/well). […] After 4 hrs, well fluorescence was measured (λex 560 nm, λem 590 nm) using a fluorophotometer (SpectraMax Gemini; Molecular Devices, Sunnyvale, Calif.). IC50 was determined as the midpoint between saline (positive) and cell-free (negative) controls for each plate.

[6] = tested on: MDA-MB-468LN tumor cells; assay: Efficacy of HA-doxorubicin vs intravenous doxorubicin, breast tumor xenograft; format: in vivo, nude mice; details: 6 weeks post-implantation; in saline via the tail vein, doses at 3 and 5 weeks
Procedure: Nude nu/nu mice were implanted with 1×10^6 cells (MDA-MB-468LN human breast cancer cells) into the mammary fatpad, after approximately 4 weeks a 100-200 mm^3 tumor had developed in the axillary lymph node package. Animals were randomly divided into four treatment groups of five animals each: intravenous saline, s.q. HA, intravenous cisplatin, or s.q. HA-cisplatin. At this point, doses were administered to the animals. In the HA-cisplatin and the HA groups, HA-cisplatin (3.3 mg/kg based on Pt-content) or HA (3.3 mg/kg) was dissolved in 100 mcL saline was injected subcutaneously peritumorally. […] In all study groups, a second dose was administered after 1 week. Tumor volumes were measured weekly using calipers and the formula: Volume=0.52×(width^2*length). Animals were euthanized when the tumor volume exceeded […] or the body score index fell below 2.
To evaluate the efficacy of HA-doxorubicin conjugates injected subcutaneously in the […] compared with intravenous doxorubicin, the following experiment was performed. MDA-MB-468LN tumor cells into nude mice as described in [128] and divided into four groups of five animals each. After 3 weeks, HA-DOX was injected peritumorally at 3.3 mg/kg (DOX basis), DOX was injected in saline via the tail vein, HA was injected peritumorally, and saline was injected via the tail vein. […]

N.N.[Cl][Pt][Cl] [Cisplatin, cis-diamminedichloroplatinum, reference compound]
IC50 ([1]; MCF-7, cisplatin basis): 7 µg/mL
IC50 ([1]; MCF-7, read-out: IC50): 23 µM
IC50 ([2]; cisplatin basis): 4 µg/mL
IC50 ([2]; cisplatin basis, listed as cisplatin): 7 µg/mL
IC50 ([2]; read-out: IC50): 13 µM
tumor growth delay [3]: about 3 weeks
AUC (0-96 hrs) ([4]; Bladder, subcutaneous into right mammary fatpad of female rats): 208.5 µg·h/g
AUC (0-96 hrs) ([4]; Brain, subcutaneous into right mammary fatpad): 442.5 µg·h/g
AUC (0-96 hrs) ([4]; Heart, subcutaneous into right mammary fatpad): 459.0 µg·h/g
AUC (0-96 hrs) ([4]; Kidneys, subcutaneous into right mammary fatpad): 650.9 µg·h/g
AUC (0-96 hrs) ([4]; Left lymph node (LLN), subcutaneous into right mammary fatpad): 349.5 µg·h/g
AUC (0-96 hrs) ([4]; Liver, subcutaneous into right mammary fatpad): 415.6 µg·h/g
AUC (0-96 hrs) ([4]; Lungs, subcutaneous into right mammary fatpad): 409.8 µg·h/g
AUC (0-96 hrs) ([4]; Muscle, subcutaneous into right mammary fatpad): 371.5 µg·h/g
AUC (0-96 hrs) ([4]; Plasma, subcutaneous into right mammary fatpad): 174.1 µg·h/g
AUC (0-96 hrs) ([4]; Right lymph node (RLN), subcutaneous into right mammary fatpad, p < 0.05): 446.0 ^† μg · hr/g
AUC (0-96 hrs) ([4]; Spleen, subcutaneous into right mammary fatpad): 349.1 µg·h/g
serum Cmax ([4]; intravenous (as worded in legend of FIG. 10B)): over 4 micrograms/mL
IC50 ([5]; HA carriers on a Pt-basis equivalent to cisplatin): 5 µg/mL
IC50 ([5]; Pt-basis, read-out: IC50): 17 µM

COc1cccc2c1C(=O)c1c(O)c3c(c(O)c1C2=O)C[C@@](O)(C(=O)CO)C[C@@H]3O[C@H]1C[C@H](N)[C@H](O)[C@H](C)O1 [DOX, doxorubicin]
tumor volume [6]: greater than 300 mm^3
